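1) Cells in 96-well plates. 2) Compound, 48 h, 5 concentrations. 3) Linear interpolation between surrounding doses. 4) Unreached endpoint = highest concentration. At the GI50, growth is halved.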 The source made the active and inactive calls. No stated cut-off is given here; in the data, active = GI50 up to about 1.1 µM and inactive = higher.
Legend:
Test in all cases: NCI-60 cell line screen, 48 h
[1] = test system: MOLT-4
[2] = test system: KM12
[3] = test system: XF498
[4] = test system: LXFL 529
[5] = test system: KM-20L2
[6] = test system: Malme-3M
[7] = test system: RXF 393
[8] = test system: DMS-114
[9] = test system: M19-MEL
[10] = test system: MDA-MB-435
[11] = test system: HCT-15
[12] = test system: T47D
[13] = test system: DU-145
[14] = test system: MCF7
[15] = test system: Hs-578T
[16] = test system: HOP-18
[17] = test system: SNB-78
[18] = test system: RXF 631
[19] = test system: DMS-273
[20] = test system: NCI-H226

Row | Structure (SMILES) | GI50 [1] | GI50 [2] | GI50 [3] | GI50 [4] | GI50 [5] | GI50 [6] | GI50 [7] | GI50 [8] | GI50 [9] | GI50 [10] | GI50 [11] [µM] | GI50 [12] | GI50 [13] | GI50 [14] | GI50 [15] | GI50 [16] | GI50 [17] | GI50 [18] | GI50 [19] | GI50 [20]
1 | O=C1C(Cl)N(c2ccc(Cl)cc2Cl)C1c1c[nH]c2ccccc12 (configuration not stated) | > 100 µM (inactive) | > 100 µM (inactive) | > 100 µM (inactive) | > 100 µM (inactive) | > 100 µM (inactive) | > 100 µM (inactive) | 74 µM (inactive) | > 100 µM (inactive) | > 100 µM (inactive) |  |  |  |  |  |  |  |  |  |  | 
2 | CCOC(=O)C(NC(C)=O)(Nc1ccc(F)cc1)C(F)(F)F (configuration not stated) | 90.6 µM (inactive) | 83.2 µM (inactive) |  |  |  |  | 40.3 µM (inactive) |  |  | 3.95 µM (inactive) | 0.49 | 23.2 µM (inactive) | > 100 µM (inactive) | 28.2 µM (inactive) | > 100 µM (inactive) |  |  |  |  | 
3 | CC(C)(C)C1(c2ccc(C3(c4ccccc4)Oc4ccccc4S3)[nH]2)Oc2ccccc2S1 (configuration not stated) | 65.5 µM (inactive) |  | 32.5 µM (inactive) | > 100 µM (inactive) | > 100 µM (inactive) | > 100 µM (inactive) | > 100 µM (inactive) | > 100 µM (inactive) | > 100 µM (inactive) |  | > 100 |  |  |  |  | > 100 µM (inactive) | > 100 µM (inactive) | > 100 µM (inactive) | > 100 µM (inactive) | 55 µM (inactive)
4 | Cn1cnc(/C=C/C#N)c1 | > 100 µM (inactive) | > 100 µM (inactive) |  |  |  | > 100 µM (inactive) | > 100 µM (inactive) |  |  | > 100 µM (inactive) | > 100 |  |  | > 100 µM (inactive) |  |  |  |  |  | 76.7 µM (inactive)
5 | COc1cccc(NC(=O)N/C(=C/c2ccc(N(CCC#N)CCC#N)cc2)NC(=O)c2cc([N+](=O)[O-])ccc2Cl)c1 | 35 µM (inactive) | > 100 µM (inactive) | > 100 µM (inactive) | > 100 µM (inactive) | > 100 µM (inactive) |  | > 100 µM (inactive) | 37.2 µM (inactive) | > 100 µM (inactive) |  | 95.5 |  |  |  |  | > 100 µM (inactive) | > 100 µM (inactive) | > 100 µM (inactive) | > 100 µM (inactive) | > 100 µM (inactive)
6 | COc1cc2c(cc1OC)C1Cc3sccc3CN1CC2 (configuration not stated) | > 100 µM (inactive) |  | > 100 µM (inactive) | > 100 µM (inactive) | > 100 µM (inactive) | > 100 µM (inactive) | > 100 µM (inactive) | > 100 µM (inactive) | > 100 µM (inactive) |  | > 100 |  |  |  |  | > 100 µM (inactive) | > 100 µM (inactive) | > 100 µM (inactive) | > 100 µM (inactive) | > 100 µM (inactive)
7 | O=c1c(Cc2ccc(Cc3c(O)oc4ccccc4c3=O)cc2)c(O)oc2ccccc12 | > 100 µM (inactive) |  |  |  |  | > 100 µM (inactive) | > 100 µM (inactive) |  |  | > 100 µM (inactive) | > 100 | > 100 µM (inactive) | > 100 µM (inactive) | > 100 µM (inactive) | > 100 µM (inactive) |  |  |  |  | > 100 µM (inactive)
8 | CCOC(=O)/C(=N/Nc1ccc(C)cc1)N1C(=S)N(C)N=C(C)C=C1S | > 100 µM (inactive) | > 100 µM (inactive) |  |  |  |  | 41.7 µM (inactive) |  |  | > 100 µM (inactive) | > 100 | > 100 µM (inactive) | > 100 µM (inactive) | > 100 µM (inactive) | 25.7 µM (inactive) |  |  |  |  | 
